Broadly, the IC50 is the concentration at which inhibition is half-maximal.

This note sets out measurements from patent US20240327433A1, “PYRIMIDOPYRAN COMPOUND” (Medshine Discovery Inc., priority 2021, published 2024).

Data set [1] has as its system xenograft tumor of human colon cancer GP2D. Put plainly: Pharmacodynamics in vivo: Balb/c nude mouse subcutaneous xenograft of human colon cancer GP2D cells. The settings on record: PO, BID*20, 20th day. On the procedure:
A Balb/c nude mouse model of subcutaneously xenograft tumor of human colon cancer GP2D cell was established. 0.2 mL (2×10^6) of GP2D cells (Matrigel was added, and volume ratio was 1:1) were inoculated subcutaneously on the right back of each mouse. When the average tumor volume reached 149 mm^3, the administration was started by group, with 6 mice in each group. On the day of the assay, the animals were administered the corresponding drugs according to the corresponding groups. The first group G1 was set as a negative control group, which was given 5% DMSO+95%(10% HP-β-CD) alone by gavage administration. The second group G2 to the fourth group G4 were given compound 1 hydrochloride, and the dosage and protocol of administration were shown in Table 13.
During the assay, the body weight of animals and the tumor size were measured twice a week. Meanwhile clinical symptoms of animals were observed and recorded every day. Each administration was referenced to the most recent body weight of animals.
The length (a) and width (b) of a tumor were measured with a digital vernier caliper. The calculation formula of tumor volume (Tumor volume, TV) was: TV=a×b^2/2.
(In general: A xenograft is tissue or cells of one species grown in another, often human tumour cells in immunodeficient mice.)

Data set [2] is described as follows: Plasma protein binding (PPB), equilibrium dialysis, Sprague-Dawley rat plasma. It is filed as in vitro ADME. To be noted: 2 μM, unbound rate. Here is the method: (§1) The protein binding rates of the compound in the plasma of CD-1 mouse, Sprague-Dawley rat, Beagle dog, cynomolgus monkey and human were determined by equilibrium dialysis method.
(§2) The plasmas of the above-mentioned five species were formulated to plasma samples with a compound concentration of 2 μM. The plasma samples were placed in a 96-well rapid equilibrium dialysis device, and dialyzed against phosphate buffered saline at 37±1° C. for 4 h. In this assay, warfarin was used as a control compound. The concentrations of analytes in plasma and dialysis buffer were determined by LC-MS/MS mothed.
A general note: In equilibrium dialysis only unbound substance equilibrates across the membrane.

The subject of the next data set is KRAS^G12D GP2D. As to the kind of experiment: Anti-cell proliferation effect in tumor cell line GP2D (CellTiter-Glo 3D). In kind it is cell-based. The settings on record: 120 hours. Here is the method: (§3) In this assay, the effect of the compounds on inhibiting cell proliferation was studied by detecting the effect of the compounds on the cell activity in vitro in the tumor cell lines AsPC-1 and GP2D.
(§4) The tumor cell lines were cultured in a 37° C., 5% CO2 incubator according to the culture conditions indicated in the culture method. Cells were passaged regularly, and cells in logarithmic growth phase were used for plating.
(§5) Cells were stained with trypan blue and viable cells were counted.
(§6) The cell concentration was adjusted to an appropriate concentration.
(§7) To each well of a ULA culture plate was added 135 μL of cell suspension. To the blank control well was added the same volume of culture medium without cells.
(§8) After plating, the ULA culture plate was immediately centrifuged at room temperature at 1000 rpm for 10 minutes. Note: After completion of the centrifugation, subsequent operations must be processed carefully to avoid unnecessary shocks.
(§9) The culture plate was incubated in a 37° C., 5% CO2, 100% relative humidity incubator overnight.
(§10) 10× compound working solution (10× working solution in DMSO) was formulated, and then to the ULA culture plate was add 15 μL of 10× compound working solution, and to the vehicle control and blank control was added 15 μL of DMSO-cell culture medium mixture, respectively. […]
(§11) The luminescent signal was detected on a 2104 EnVision plate reader. […]
A general note: Cellular ATP, detected with luciferase, serves as a proxy for viable cell number.

The next data set concerns p-ERK in GP2D cells. Put plainly: Assay of p-ERK inhibition in GP2D cells (HTRF). In kind it is cell-based. To be noted: 1 hour incubation. Here is the method: The cell plate was inoculated in a carbon dioxide incubator at 37° C. overnight; • 2) 2 μL of the compound was weighed and added to 78 μL of the cell medium. After the mixture was mixed thoroughly, 20 μL of the solution of compound was weighed and added to the corresponding well of the cell plate. The cell plate was placed back to the carbon dioxide incubator and incubated for another 1 hour; • 3) After completion of the incubation, the cell supernatant was discarded. 50 μL of 1× cell lysate was added to each well. The mixture was incubated with shaking at room temperature for 30 minutes; • 4) Phospho-ERK1/2 Eu Cryptate antibody and Phospho-ERK1/2 d2 antibody were diluted 20-fold with detection buffer; • 5) 16 μL of cell lysate supernatant was weighed and added into each well of a new 384 white microwell plate, and then 2 μL of the diluted solution of Phospho-ERK1/2 Eu Cryptate antibody and 2 μL of the diluted solution of Phospho-ERK1/2 d2 antibody dilution were added. The mixture was incubated at room temperature for at least 4 hours; • 6) After completion of the incubation, HTRF was read with multi-label analyzer: excitation: 320 nm, emission: 615 nm, 665 nm; • 7). IC50 of the compounds to be assayed was calculated.

Another data set relates to KRAS^G12D AsPC-1. As to the kind of experiment: Anti-cell proliferation effect in tumor cell line AsPC-1 (CellTiter-Glo 3D). In kind it is cell-based. The settings on record: Homo sapiens, ASPC1, AsPC-1, 120 hours. Here is the method:
as §3, §4, §5, §6, §7, §8, §9, §10, §11

Data set [3] is described as follows: Plasma protein binding (PPB), equilibrium dialysis, CD-1 mouse plasma. The settings on record: 2 μM, unbound rate. It is filed as in vitro ADME. Here is the method:
as §1, §2

Data set [4] in a line: Plasma protein binding (PPB), equilibrium dialysis, Beagle dog plasma. It is filed as in vitro ADME. The settings on record: 2 μM, unbound rate. Here is the method: as §1, §2
The nature of data set [5]: Plasma protein binding (PPB), equilibrium dialysis, human plasma. In kind it is in vitro ADME. The settings on record: 2 μM, unbound rate. Here is the method:
as §1, §2

Data set [6] can be described thus: PPB assay: recovery rate in the dialysis device (five species plasma). To be noted: CD-1 (mouse), Sprague-Dawley (rat), Beagle (dog), cynomolgus monkey, human. In kind it is in vitro ADME. Here is the method:
The protein binding rates of the compound in the plasma of CD-1 mouse, Sprague-Dawley rat, Beagle dog, cynomolgus monkey and human were determined by equilibrium dialysis method. The plasmas of the above-mentioned five species were formulated to plasma samples with a compound concentration of 2 μM. The plasma samples were placed in a 96-well rapid equilibrium dialysis device, and dialyzed against phosphate buffered saline at 37±1° C. for 4 h. In this assay, warfarin was used as a control compound. The concentrations of analytes in plasma and dialysis buffer were determined by LC-MS/MS mothed.

Counter-ions that a name gives are not always drawn.

As to `Cc1cc(N)c(F)c(C2Cc3nc(OC[C@@]45CCCN4C[C@H](F)C5)nc(N4CC5CCC(C4)N5)c3CO2)c1C(F)(F)F` (some centres unmarked) [Compound 1 hydrochloride], the “Tumor volume inhibition rate TGI (%)” value in data set [1] (G2, 3 mg/kg) is given as 19.4%; in data set [1] (G3, 10 mg/kg), 53.9%; in data set [1] (G4, 30 mg/kg), 83.7%. In addition, the “Unbound PPB R” value in [2] worked out at 3.0%. Further, the IC50 in the data set on KRAS^G12D GP2D came to 37 nM; in the data set on p-ERK in GP2D cells it was 0.8 nM; in the data set with KRAS^G12D AsPC-1, 315 nM. Also, the “Unbound PPB M” value in [3] is given as 2.7%. The “Unbound PPB D” value in [4] came to 5.2%. Also, in data set [5], the “Unbound PPB H” value was 7.0%. The molecule further had a recovery at 4 h, 2 μM in data set [6] of 82.4 to 110%.
